Patent US20230023559A1, “ARYLMETHYLENE HETEROCYCLIC COMPOUNDS AS KV1.3 POTASSIUM SHAKER CHANNEL BLOCKERS” (D. E. Shaw Research, LLC, priority 2019, published 2023)

What was measured:
[1] = target: T1, Kv1.3 potassium channel (Homo sapiens, UniProt P22001); experiment: Kv1.3 potassium channel blocker activity, automated whole-cell patch clamp (Patchliner); assay type: cell-based; details: CHO-K1 cells stably expressing Kv1.3; whole cell current inhibition; read-out: Kv1.3_IC50
T1 construct: expressed in transfected cells
T1 sequence (P22001 whole entry): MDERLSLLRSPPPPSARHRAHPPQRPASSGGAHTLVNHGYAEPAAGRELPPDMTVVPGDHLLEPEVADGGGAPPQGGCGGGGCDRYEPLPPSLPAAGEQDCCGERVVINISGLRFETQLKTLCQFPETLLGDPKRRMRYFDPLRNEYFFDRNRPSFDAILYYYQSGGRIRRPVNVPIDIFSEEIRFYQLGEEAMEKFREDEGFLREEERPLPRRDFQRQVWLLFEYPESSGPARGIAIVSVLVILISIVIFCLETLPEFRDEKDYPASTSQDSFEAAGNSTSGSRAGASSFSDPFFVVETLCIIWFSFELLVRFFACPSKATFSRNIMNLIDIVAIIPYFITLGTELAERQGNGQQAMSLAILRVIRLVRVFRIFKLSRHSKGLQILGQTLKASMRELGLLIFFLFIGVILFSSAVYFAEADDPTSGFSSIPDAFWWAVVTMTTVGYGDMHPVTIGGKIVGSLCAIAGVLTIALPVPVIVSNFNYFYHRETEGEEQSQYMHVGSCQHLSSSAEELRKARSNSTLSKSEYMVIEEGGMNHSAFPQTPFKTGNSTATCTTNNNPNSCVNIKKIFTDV
Method in brief: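 CHO-K1 cells stably expressing Kv1.3, automated whole-cell patch clamp. Currents evoked by 100 ms steps from −90 mV holding to +40 mV at 0.1 Hz, sampled at 10 kHz unfiltered, P/4 leak subtraction; peak current inhibition measured, compound incubation ≤10 s between pulse trains.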

[2] = target: hERG channel (Homo sapiens, UniProt Q12809); experiment: hERG electrophysiology, automated whole-cell patch clamp (Patchliner)
Sequence of hERG channel (Q12809 whole entry): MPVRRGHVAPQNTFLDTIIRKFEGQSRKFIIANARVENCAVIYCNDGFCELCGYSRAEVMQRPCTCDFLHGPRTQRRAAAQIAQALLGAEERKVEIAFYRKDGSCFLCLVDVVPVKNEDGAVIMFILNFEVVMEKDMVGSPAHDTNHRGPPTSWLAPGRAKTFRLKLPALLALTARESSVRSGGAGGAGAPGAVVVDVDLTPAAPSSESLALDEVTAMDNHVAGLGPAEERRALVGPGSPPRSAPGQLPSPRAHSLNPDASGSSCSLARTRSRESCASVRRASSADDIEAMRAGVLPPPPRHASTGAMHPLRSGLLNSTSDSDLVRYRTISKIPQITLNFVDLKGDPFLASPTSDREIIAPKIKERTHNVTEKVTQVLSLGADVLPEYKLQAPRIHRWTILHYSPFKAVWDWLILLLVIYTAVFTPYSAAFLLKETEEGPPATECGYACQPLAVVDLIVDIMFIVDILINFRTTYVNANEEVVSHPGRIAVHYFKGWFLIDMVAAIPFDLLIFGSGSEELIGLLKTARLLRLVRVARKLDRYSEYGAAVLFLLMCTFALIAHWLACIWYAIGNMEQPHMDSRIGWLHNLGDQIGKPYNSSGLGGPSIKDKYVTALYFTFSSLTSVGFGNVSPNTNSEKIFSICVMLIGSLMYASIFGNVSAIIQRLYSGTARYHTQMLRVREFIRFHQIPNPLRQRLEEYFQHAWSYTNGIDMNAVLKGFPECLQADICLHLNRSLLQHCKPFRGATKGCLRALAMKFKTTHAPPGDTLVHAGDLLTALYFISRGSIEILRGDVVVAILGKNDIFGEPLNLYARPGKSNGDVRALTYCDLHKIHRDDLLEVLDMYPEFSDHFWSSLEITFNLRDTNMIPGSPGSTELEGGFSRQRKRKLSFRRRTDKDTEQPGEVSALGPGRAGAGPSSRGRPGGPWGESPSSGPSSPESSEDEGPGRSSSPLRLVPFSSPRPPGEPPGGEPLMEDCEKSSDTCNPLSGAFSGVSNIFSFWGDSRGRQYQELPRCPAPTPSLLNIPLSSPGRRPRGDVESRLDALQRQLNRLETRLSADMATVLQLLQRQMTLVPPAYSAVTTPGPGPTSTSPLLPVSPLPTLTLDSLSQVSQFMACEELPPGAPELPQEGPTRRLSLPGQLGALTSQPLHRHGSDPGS
Protocol: CHO-K1 cells stably expressing hERG were grown in Ham's F-12 Medium with Glutamine containing 10% heat-inactivated FBS, 1% Penicillin/Streptomycin, Hygromycin (100 μg/ml) and G418 (100 μg/ml). Cells were grown in culture flasks at 37° C. in a 5% CO2-humidified incubator.
The cells were bathed in an extracellular solution containing 140 mM NaCl, 4 mM KCl, 2 mM CaCl2), 1 mM MgCl2, 5 mM Glucose, 10 mM HEPES; pH adjusted to 7.4 with NaOH; 295-305 mOsm. The internal solution contained 50 mM KCl, 10 mM NaCl, 60 mM KF, 20 mM EGTA, 10 mM HEPES; pH adjusted to 7.2 with KOH; 285 mOsm. All compounds were dissolved in DMSO at 30 mM. Compound stock solutions were freshly diluted with external solution to concentrations of 30 nM, 100 nM, 300 nM, 1 μM, 3 μM, 10 μM, 30 μM and 100 μM. The highest content of DMSO (0.3%) was present in 100 μM.
The voltage protocol (see Table B) was designed to simulate voltage changes during a cardiac action potential with a 300 ms depolarization to +20 mV (analogous to the plateau phase of the cardiac action potential), a repolarization for 300 ms to −50 mV (inducing a tail current) and a final step to the holding potential of −80 mV. The pulse frequency was 0.3 Hz. Control (compound-free) and compound pulse trains for each compound concentration applied contained 70 pulses.
Whole cell current recordings and compound application were enabled by means of an automated patch clamp platform Patchliner (Nanion). EPC 10 patch clamp amplifier (HEKA) along with Patchmaster software (HEKA Elektronik Dr. Schulze GmbH) was used for data acquisition. Data were sampled at 10 kHz without filtering. Increasing compound concentrations were applied consecutively to the same cell without washouts in between.
AUC and PEAK values were obtained with Patchmaster (HEKA Elektronik Dr. Schulze GmbH). To determine IC50 the last single pulse in the pulse train corresponding to a given compound concentration was used. Obtained AUC and PEAK values in the presence of compound were normalized to control values in the absence of compound. Using Origin (OridinLab), IC50 was derived from data fit to Hill equation: Icompound/Icontrol=(100−A)/(1+([compound]/IC50)nH)+A, where IC50 is the concentration at which current inhibition is half-maximal, [compound] is the applied compound concentration, A is the fraction of current that is not blocked and nH is the Hill coefficient.

Compound	IC50 [1]	IC50 [2]
C[C@@]1(C(=O)N2CCC([C@@H](N)c3cc(Cl)c(Cl)cc3O)CC2)CCCN1 [Compound 98, (4-((R)-amino(4,5-dichloro-2-hydroxyphenyl)methyl)piperidin-1-yl)((S)-2-methylpyrrolidin-2-yl)methanone]	< 0.5 µM	> 30 µM
N[C@@H](c1cc(Cl)c(Cl)cc1O)C1CCN(C(=O)[C@@H]2CNCCO2)CC1 [Compound 99, (4-((R)-amino(4,5-dichloro-2-hydroxyphenyl)methyl)piperidin-1-yl)((S)-morpholin-2-yl)methanone]	< 0.5 µM	> 30 µM
C[C@H](O)C(=O)N1CCC([C@@H](N)c2cc(Cl)c(Cl)cc2O)CC1 [Compound 102, (S)-1-(4-((R)-amino(4,5-dichloro-2-hydroxyphenyl)methyl)piperidin-1-yl)-2-hydroxypropan-1-one]	< 0.5 µM	> 30 µM
N[C@@H](c1cc(Cl)c(Cl)cc1O)C1CCN(C(=O)CC2CNC2)CC1 [Compound 103, (R)-1-(4-(amino(4,5-dichloro-2-hydroxyphenyl)methyl)piperidin-1-yl)-2-(azetidin-3-yl)ethanone trifluoroacetic acid]	< 0.5 µM	> 30 µM
C[C@@H](O)C(=O)N1CCC([C@@H](N)c2cc(Cl)c(Cl)cc2O)CC1 [Compound 105, (R)-1-(4-((R)-amino(4,5-dichloro-2-hydroxyphenyl)methyl)piperidin-1-yl)-2-hydroxypropan-1-one]	< 10 µM	> 30 µM
CN1CC[C@H](C(=O)N2CCC([C@@H](N)c3cc(Cl)c(Cl)cc3O)CC2)C1 [Compound 106, (4-((R)-amino(4,5-dichloro-2-hydroxyphenyl)methyl)piperidin-1-yl)((S)-1-methylpyrrolidin-3-yl)methanone]	< 0.5 µM	> 30 µM
CC1(C(=O)N2CCC([C@@H](N)c3cc(Cl)c(Cl)cc3O)CC2)CNC1 [Compound 109, (R)-(4-(amino(4,5-dichloro-2-hydroxyphenyl)methyl)piperidin-1-yl)(3-methylazetidin-3-yl)methanone]	< 0.5 µM	> 30 µM
O=C([C@@H]1CCNC1)N1CCC(Cc2cc(Cl)c(Cl)cc2O)CC1 [Compound 111, 4,5-dichloro-2-([1-[(3R)-pyrrolidine-3-carbonyl]piperidin-4-yl]methyl)phenol Trifluoroacetic Acid]	< 0.5 µM	< 30 µM
N[C@@H](c1cc(Cl)c(Cl)cc1O)C1CCN(C(=O)C2(F)CNC2)CC1 [Compound 114, 2-[(R)-amino[1-(3-fluoroazetidine-3-carbonyl)piperidin-4-yl]methyl]-4,5-dichlorophenol]	< 0.5 µM	> 30 µM
N[C@@H](c1cc(Cl)c(Cl)cc1O)C1CCN(C(=O)C(O)CO)CC1 (stereo partly drawn) [Compound 117, 1-(4-((R)-amino(4,5-dichloro-2-hydroxyphenyl)methyl)piperidin-1-yl)-2,3-dihydroxypropan-1-one]	< 0.5 µM	> 30 µM
O=C([C@@H]1CCNC1)N1CCC(Cc2c(O)ccc(Cl)c2Cl)CC1 [Compound 122, 3,4-dichloro-2-([1-[(3R)-pyrrolidine-3-carbonyl]piperidin-4-yl]methyl)phenol Trifluoroacetic Acid]	< 0.5 µM	< 30 µM
O=C([C@@H]1CCNC1)N1CCC(C(O)c2c(O)ccc(Cl)c2Cl)CC1 (stereo partly drawn) [Compound 126, 3,4-dichloro-2-[hydroxy([1-[(3R)-pyrrolidine-3-carbonyl]piperidin-4-yl])methyl]phenol Trifluoroacetic Acid]	< 10 µM	> 30 µM
N[C@@H](c1cc(Cl)c(Cl)cc1O)C1CCN(C(=O)c2cn[nH]c2)CC1 [Compound 131, 2-[(R)-amino[1-(1H-pyrazole-4-carbonyl)piperidin-4-yl]methyl]-4,5-dichlorophenol trifluoroacetic acid]	< 0.5 µM	> 30 µM
COCCS(=O)(=O)N1CCC([C@@H](N)c2cc(Cl)c(Cl)cc2O)CC1 [Compound 132, 2-[(R)-amino[1-(2-methoxyethanesulfonyl)piperidin-4-yl]methyl]-4,5-dichlorophenol Trifluoroacetic Acid]	< 10 µM	< 30 µM
N[C@@H](c1cc(Cl)c(Cl)cc1O)C1CCN(C(=O)c2ccn[nH]2)CC1 [Compound 136, 2-[(R)-amino[1-(1H-pyrazole-3-carbonyl)piperidin-4-yl]methyl]-4,5-dichlorophenol trifluoroacetic acid]	< 10 µM	> 30 µM
N[C@@H](c1cc(Cl)c(Cl)cc1O)C1CCN(C(=O)[C@H]2C[C@@H](O)C2)CC1 [Compound 138, 2-[(R)-amino([1-[(1S,3S)-3-hydroxycyclo-butanecarbonyl]piperidin-4-yl])methyl]-4,5-dichlorophenol trifluoroacetic acid]	< 10 µM	> 30 µM
N[C@@H](c1cc(Cl)c(Cl)cc1O)C1CCN(C(=O)N2CCNCC2)CC1 [Compound 141, 2-[(R)-amino[1-(piperazine-1-carbonyl)piperidin-4-yl]methyl]-4,5-dichlorophenol Trifluoroacetic Acid]	< 0.5 µM	> 30 µM
CC(C)(CO)C(=O)N1CCC([C@@H](N)c2cc(Cl)c(Cl)cc2O)CC1 [Compound 142, 1-[4-[(R)-amino(4,5-dichloro-2-hydroxyphenyl)methyl]piperidin-1-yl]-3-hydroxy-2,2-dimethylpropan-1-one trifluoroacetic acid]	< 10 µM	< 30 µM
N[C@@H](c1cc(Cl)c(Cl)cc1O)C1CCN(C(=O)C2(O)COC2)CC1 [Compound 143, 3-[4-[(R)-amino(4,5-dichloro-2-hydroxyphenyl)methyl]piperidine-1-carbonyl]oxetan-3-ol]	< 10 µM	> 30 µM
N[C@@H](c1cc(Cl)c(Cl)cc1O)C1CCN(C(=O)C2COCCN2)CC1 (stereo partly drawn) [Compound 144, 2-[(R)-amino[1-(morpholine-3-carbonyl)piperidin-4-yl]methyl]-4,5-dichlorophenol trifluoroacetic acid]	< 10 µM	> 30 µM

Continued, in another order:

IC50 [1]	Compound	IC50 [2]
< 0.5 µM	N[C@@H](c1cc(Cl)c(Cl)cc1O)C1CCN(C(=O)[C@H]2CNCCO2)CC1 [Compound 97, (4-((R)-amino(4,5-dichloro-2-hydroxyphenyl)methyl)piperidin-1-yl)((R)-morpholin-2-yl)methanone trifluoroacetic acid]	> 30 µM
< 0.5 µM	N[C@@H](c1cc(Cl)c(Cl)cc1O)C1CCN(C(=O)[C@@H]2CCN2)CC1 [Compound 100, 2-[(R)-amino([1-[(2S)-azetidine-2-carbonyl]piperidin-4-yl])methyl]-4,5-dichlorophenol]	> 30 µM
< 0.5 µM	O=C([C@@H]1CCNC1)N1CCC(C(O)c2cc(Cl)c(Cl)cc2O)CC1 (stereo partly drawn) [Compound 101, 4,5-dichloro-2-[hydroxy([1-[(3R)-pyrrolidine-3-carbonyl]piperidin-4-yl])methyl]phenol]	> 30 µM
< 0.5 µM	CN1CC[C@@H](C(=O)N2CCC([C@@H](N)c3cc(Cl)c(Cl)cc3O)CC2)C1 [Compound 104, 2-[(R)-amino([1-[(3R)-1-methylpyrrolidine-3-carbonyl]piperidin-4-yl])methyl]-4,5-dichlorophenol]	> 30 µM
< 0.5 µM	N[C@@H](c1cc(Cl)c(Cl)cc1O)C1CCN(S(=O)(=O)C2CNC2)CC1 [Compound 107, 2-[(R)-amino[1-(azetidine-3-sulfonyl)piperidin-4-yl]methyl]-4,5-dichlorophenol]	> 30 µM
< 0.5 µM	N[C@@H](c1cc(Cl)c(Cl)cc1O)C1CCN(S(=O)(=O)C2CCNC2)CC1 (stereo partly drawn) [Compound 110, 2-[(R)-amino[1-(pyrrolidine-3-sulfonyl)piperidin-4-yl]methyl]-4,5-dichlorophenol]	> 30 µM
< 0.5 µM	N[C@@H](c1cc(Cl)c(Cl)cc1O)C1CCN(C(=O)CCO)CC1 [Compound 133, 1-[4-[(R)-amino(4,5-dichloro-2-hydroxyphenyl)methyl]piperidin-1-yl]-3-hydroxypropan-1-one trifluoroacetic acid]	> 30 µM
< 0.5 µM	COCC(=O)N1CCC([C@@H](N)c2cc(Cl)c(Cl)cc2O)CC1 [Compound 134, 1-[4-[(R)-amino(4,5-dichloro-2-hydroxyphenyl)methyl]piperidin-1-yl]-2-methoxyethan-1-one trifluoroacetic acid]	< 30 µM
< 0.5 µM	N[C@@H](c1cc(Cl)c(Cl)cc1O)C1CCN(C(=O)CO)CC1 [Compound 135, 1-[4-[(R)-amino(4,5-dichloro-2-hydroxyphenyl)methyl]piperidin-1-yl]-2-hydroxyethan-1-one trifluoroacetic acid]	> 30 µM
< 0.5 µM	N[C@@H](c1cc(Cl)c(Cl)cc1O)C1CCN(C(=O)C2COCCO2)CC1 (stereo partly drawn) [Compound 137, 2-[(R)-amino[1-(1,4-dioxane-2-carbonyl)piperidin-4-yl]methyl]-4,5-dichlorophenol trifluoroacetic acid]	< 30 µM
< 0.5 µM	N[C@@H](c1cc(Cl)c(Cl)cc1O)C1CCN(C(=O)[C@H]2C[C@H](O)C2)CC1 [Compound 139, 2-[(R)-amino([1-[(1R,3R)-3-hydroxycyclo-butanecarbonyl]piperidin-4-yl])methyl]-4,5-dichlorophenol trifluoroacetic acid]	> 30 µM
< 10 µM	N[C@@H](c1cc(Cl)c(Cl)cc1O)C1CCN(C(=O)C2(O)CC2)CC1 [Compound 140, 2-[(R)-amino[1-(1-hydroxycyclo-propanecarbonyl)piperidin-4-yl]methyl]-4,5-dichlorophenol trifluoroacetic acid]	< 30 µM
